Assay results from PMC6009911, “Inhibition of human cytochromes P450 2A6 and 2A13 by flavonoids, acetylenic thiophenes and sesquiterpene lactones from Pluchea indica and Vernonia cinerea” (Journal of Enzyme Inhibition and Medicinal Chemistry, 2017).
Where two headings read alike, the source gives them in different places.

Key:
Format in all cases: biochemical
[1] = target: T1, CYP2A13 (Homo sapiens, UniProt Q16696); assay: Inhibition of CYP2A13-mediated coumarin 7-hydroxylation, enzymatic reconstitution assay
T1 construct: made in house
T1 sequence (Q16696 1-494): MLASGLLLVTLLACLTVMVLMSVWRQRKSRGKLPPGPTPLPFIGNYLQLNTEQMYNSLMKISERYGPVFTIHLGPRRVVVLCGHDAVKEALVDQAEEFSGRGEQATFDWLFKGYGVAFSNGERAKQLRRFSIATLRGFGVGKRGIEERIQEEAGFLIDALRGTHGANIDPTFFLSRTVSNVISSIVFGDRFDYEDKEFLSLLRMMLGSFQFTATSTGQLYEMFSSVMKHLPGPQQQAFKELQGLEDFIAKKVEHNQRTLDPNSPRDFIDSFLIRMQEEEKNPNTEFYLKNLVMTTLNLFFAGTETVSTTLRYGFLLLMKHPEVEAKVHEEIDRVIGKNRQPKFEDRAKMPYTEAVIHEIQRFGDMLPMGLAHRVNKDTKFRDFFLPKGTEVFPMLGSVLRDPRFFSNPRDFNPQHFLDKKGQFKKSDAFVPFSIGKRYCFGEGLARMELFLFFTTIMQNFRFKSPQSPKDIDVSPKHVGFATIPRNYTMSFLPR
In short: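 Purified recombinant CYP2A6 or CYP2A13 reconstituted with rat CYPOR; coumarin 7-hydroxylation read by 7-hydroxycoumarin fluorescence (ex 355/em 460 nm), inhibition as % of vehicle control with IC50 fitted.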

[2] = target: T1, CYP2A13; assay: Mechanism-based (time- and NADPH-dependent) inactivation of CYP2A13
In short: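 Inhibitor preincubated with enzyme and NADPH for 0, 10, 20 and 30 min before the reaction. KI and Kinact derived from double reciprocal plots of kobs versus inhibitor concentration by linear regression; methoxsalen served as reference inactivator.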

[3] = target: T1, CYP2A13; assay: Effects of trapping agents and dialysis on inactivation of CYP2A13; details: CYP2A13 inhibition reaction mixture, probe coumarin, compound 5 µM
In short: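 Recombinant enzyme preincubated with inhibitor and NADPH for 0, 10, 20 and 30 min; KI and kinact taken from double-reciprocal plots of kobs versus inhibitor concentration by linear regression. Reversibility probed by dialysis and by adding trapping agents (GSH, semicarbazide, catalase or potassium ferricyanide). Methoxsalen served as mechanism-based control.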

[4] = target: T2, CYP2A6 (Homo sapiens, UniProt P11509); assay: Inhibition of CYP2A6-mediated coumarin 7-hydroxylation, enzymatic reconstitution assay; parameters: made in house
T2 sequence (P11509 1-494): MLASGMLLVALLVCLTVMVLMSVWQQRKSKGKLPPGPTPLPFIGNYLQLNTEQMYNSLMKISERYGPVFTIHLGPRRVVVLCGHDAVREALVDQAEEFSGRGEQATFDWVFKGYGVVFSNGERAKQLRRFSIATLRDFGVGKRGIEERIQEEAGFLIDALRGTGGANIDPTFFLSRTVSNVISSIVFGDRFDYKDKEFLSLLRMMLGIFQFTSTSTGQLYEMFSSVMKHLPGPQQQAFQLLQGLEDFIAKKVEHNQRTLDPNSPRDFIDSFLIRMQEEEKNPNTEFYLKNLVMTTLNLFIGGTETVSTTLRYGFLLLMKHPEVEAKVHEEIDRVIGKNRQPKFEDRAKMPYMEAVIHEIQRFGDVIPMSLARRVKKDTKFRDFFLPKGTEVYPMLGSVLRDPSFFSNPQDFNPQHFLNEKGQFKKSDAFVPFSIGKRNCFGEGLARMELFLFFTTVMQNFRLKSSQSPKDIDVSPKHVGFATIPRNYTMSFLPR
Description: Inhibitory effect of plant extracts, fractions, subfractions and constituents was determined by inhibition assay on CYP2A6- and CYP2A13-mediated coumarin 7-hydroxylation. The recombinant human CYP2A6, CYP2A13 and rat NADPH-dependent cytochrome P450 oxidoreductase (CYPOR) proteins were expressed, purified, according to the methods previously described. […] Rate of 7-hydroxycoumarin product formation was measured on spectrofluorometer (Shimadzu, Kyoto, Japan) at λex = 355 nm, λem = 460 nm. Inhibition effects were determined by incubation with extracts, fractions or purified compounds with coumarin substrate in the reaction mixture and calculated as per cent relative inhibition compared with vehicle control reaction[20] and IC50 values were calculated using GraphPad Prism 5 (GraphPad Software Inc., La Jolla, CA).
(§1) MBI requires NADPH and time to generate reactive intermediate as inhibitor and ultimately inactivates the enzyme. MBI was evaluated by pre-incubation with each test inhibitor in the reaction at different time periods (0, 10, 20 and 30 min) in the presence of NADPH for time-dependent assay, as described. The apparent inactivation constants, KI and Kinact, were obtained from double reciprocal plots of kobs versus inhibitor concentrations by linear regression analysis on GraphPad Prism 5. Methoxsalen was used as a control mechanism-based inhibitor for time- and NADPH-dependent inhibition assays.

[5] = target: T2, CYP2A6; assay: Mechanism-based (time- and NADPH-dependent) inactivation of CYP2A6; parameters: made in house
Description: as §1

[6] = target: T2, CYP2A6; assay: Effects of trapping agents and dialysis on inactivation of CYP2A6; parameters: made in house; details: CYP2A6 inhibition reaction mixture, probe coumarin, compound 5 µM
Description: as §1
To explore whether inactivation of CYP2As by thiophenes 9–11 and of CYP2A13 by hirsutinolides 5-8 could be reversed, the removal of reversible inhibitory compounds by dialysis and addition of trapping agents (GSH, semicarbazide, catalase or potassium ferricyanide) in the inhibition reaction mixture were performed. […] Similarly, mechanism-based inactivation of both CYP2A6 and CYP2A13 by thiophenes 9–11 could not be reversed (Table 3).

[7] = target: T2, CYP2A6; assay: Inhibition of CYP2A6-mediated nicotine metabolism; parameters: made in house; details: compound at IC50 value; nicotine 50 μM; 30 min; Supplemental Figure S2
Description: Supplementary Figure S2. Inhibition effects of thiophene 11 on CYP2A6-mediated […]
mediated nicotine metabolism (B). Nicotine metabolism in the presence and absence of inhibitory test compounds, at IC50 value, was performed by incubation of the reaction mixture with nicotine substrate (a final concentration of 50 μM) prior to initiation of each reaction with 50 μM NADPH at room temperature. Each reaction was terminated by addition of ice-cold acetronitrile at 30 min incubation and 50 pmol 7-hydroxycoumarin as internal standard was added. The reaction was centrifuged (12,000 rpm, 10 min, 4 °C) and 20 μl of each sample was analyzed on symmetry RP-C18 column (3.9×150 mm). Gradient condition was isocratic of 12% ACN: 2-propanol (7:3) in 10 mM potassium phosphate buffer (pH 7.4) at flow rate of 1 ml/min. The nicotine peak area in each reaction was compared with that of time zero. The enzyme activity was determined as percent substrate consumption over 30 min. The reactions were […]
(1 picture or pasted object on this page, not shown here)

[8] = time- and concentration-dependent inactivation
[9] = read-out: Per cent remaining activity, 70 μM K3Fe(CN)6
[10] = read-out: Per cent remaining activity, 2 mM GSH
[11] = read-out: Per cent remaining activity, 5 mM semicarbazide
[12] = read-out: Per cent remaining activity, 2000 U catalase
[13] = read-out: Per cent remaining activity, Dialysis (+) NADPH
[14] = read-out: Per cent remaining activity, Dialysis (−) NADPH
[15] = read-out: Per cent remaining activity, Pre-incubation

In the case of `CC#Cc1ccc(C#CC#CC(O)CO)s1` (centres unmarked) [Thiophene 11, 2-(prop-1-inyl)-5–(5,6-dihydroxyhexa-1,3-diinyl) thiophene], the “CYP2A13 Mode of inhibition” value [1] is reported as “Mixed type”, the IC50 ([1]; 10-min pre-incubation in the presence of NADPH, read-out: IC50 CYP2A13 Pre-incubation) is reported as 1.47 ± 0.12 µM and the IC50 ([1]; coincubation, coumarin 2 µM, read-out: IC50 CYP2A13 Coincubation) is reported as 2.4 ± 0.33 µM. The Ki ([1]; coumarin 0–40 µM) was 1.08 ± 0.05 µM, the kinact ([2]; pre-incubation 0-30 min with NADPH) was 0.000833 s⁻¹ and the KI (inactivation) ([2]; pre-incubation 0-30 min with NADPH, read-out: CYP2A13 KI (inactivation constant)) was 0.67 ± 0.08 µM. The “KI, CYP2A13 (in Figure 2)” value [2, 8] was 0.67 ± 0.08, the activity at 5 µM [3, 9] was 18.87 ± 0.18% and the activity at 5 µM [3, 10] was 23.5 ± 1.72%. It also gave an activity at 5 µM [3, 11] of 19.6 ± 2.73%, an activity at 5 µM [3, 12] of 19.5 ± 2.95% and an activity at 5 µM [3, 13] of 19.6 ± 4.21%. For the same molecule, the activity at 5 µM [3, 14] was 96.84 ± 0.73%, the activity at 5 µM [3, 15] was 20.2 ± 2.76% and the “CYP2A6 Mode of inhibition” value [4] was “Mixed type”. For the same molecule, the IC50 ([4]; 10-min pre-incubation in the presence of NADPH, read-out: IC50 CYP2A6 Pre-incubation) was 0.18 ± 0.01 µM, the IC50 ([4]; coincubation, coumarin 2 µM, read-out: IC50 CYP2A6 Coincubation) was 3.9 ± 0.2 µM and the Ki ([4]; coumarin 0–40 µM) was 1.8 ± 0.18 µM. The kinact ([5]; human, recombinant human CYP2A6, probe coumarin, pre-incubation 0-30 min with NADPH) was 0.00167 s⁻¹, the KI (inactivation) ([5]; human, recombinant human CYP2A6, probe coumarin, pre-incubation 0-30 min with NADPH, read-out: CYP2A6 KI (inactivation constant)) was 0.11 ± 0.02 µM and the “KI, CYP2A6 (in Figure 2)” value [5, 8] was 0.11 ± 0.02. The activity at 5 µM [6, 9] was 11.2 ± 2.96%, the activity at 5 µM [6, 10] was 8.42 ± 0.9% and the activity at 5 µM [6, 11] was 12.9 ± 3.47%. For the same molecule, the activity at 5 µM [6, 12] was 14.4 ± 1.41%, the activity at 5 µM [6, 13] was 10.1 ± 1.84% and the activity at 5 µM [6, 14] was 82.4 ± 2.49%. The activity at 5 µM [6, 15] was 12.5 ± 1.93% and the “inhibition of CYP2A6-mediated nicotine metabolism” value [7] was “showed inhibition”.
